Assay results taken from patent US20110230478A1 (Bayer ScienceCrop AG, priority 2008, published 2011).
Where two headings read alike, the source gives them in different places.

What was measured:
Fusarium proliferatum = test: Production of Fumonisin FB1 by Fusarium proliferatum (microtitre plate, FB1 by HPLC-MS/MS, growth by OD); assay type: cell-based; settings: for pI50 Fum: FB1 concentration in medium after 6 days at 20° C., HPLC-MS/MS; for pI50 growth: OD620 at the beginning and after 6 days
[1] = logP by HPLC on reversed-phase columns (C 18), EEC Directive 79/831 Annex V.A8; assay type: physicochemical; settings: for logP [b]: LC-MS, pH 2.7, 0.1% aqueous formic acid and acetonitrile
Gibberella zeae = settings: in vivo
Fusarium graminearum = assay type: cell-based; settings: 50 µM
[2] = values marked [b], footnote not given
[3] = method marker [b], footnote not given, compound 68 value matches logP (pH 2.3)
[4] = values marked [c], footnote not given
[5] = reversed-phase HPLC column (C 18), pH 2.3, pH 2.3, 0.1% aqueous phosphoric acid and acetonitrile, read-out: logP [a]
[6] = pH 2.3, 0.1% aqueous phosphoric acid and acetonitrile, read-out: logP [a]
[7] = pH 2.3, 0.1% aqueous phosphoric acid and acetonitrile

C=CCNC(=O)c1ccc(Nc2ncc(Cl)c(NC(C)COC)n2)cc1 (racemic) [Example 136]
pI50 Fum (Fusarium proliferatum): 4.4 | pI50 growth (Fusarium proliferatum): <4.3 | logP [1, 2]: 1.64[b]

CN(C)S(=O)(=O)c1cccc(Nc2ncc(Cl)c(NC(C)(C)C)n2)c1 [Example 51]
pI50 growth (Fusarium proliferatum): <4.3 | logP ([1]; method marker [a], footnote not given): 2.73[a]

COCC(C)Nc1nc(Nc2ccc(OC)c(OC)c2)ncc1Br (stereo not shown) [Example 74]
pI50 Fum (Fusarium proliferatum): 4.6 | pI50 growth (Fusarium proliferatum): <4.3 | logP [1, 3]: 1.55[b]

COCC(C)Nc1nc(Nc2cccc(OC)c2)ncc1Br (stereo not shown) [Example 109]
pI50 Fum (Fusarium proliferatum): 4.7 | pI50 growth (Fusarium proliferatum): <4.3 | logP [1, 3]: 1.9[b]

COCC(C)Nc1nc(Nc2ccc(C(C)=O)cc2)ncc1Cl (stereo not shown) [Example 152]
pI50 Fum (Fusarium proliferatum): 5 | pI50 growth (Fusarium proliferatum): <4.3 | logP [1, 2]: 2.02[b]

CSc1cccc(Nc2ncc(Cl)c(NC(C)C)n2)c1 [Example 173]
efficacy (Gibberella zeae): ≥ 80% | pI50 Fum (Fusarium proliferatum): 4.8 | pI50 growth (Fusarium proliferatum): <4.3 | logP ([1]; values marked [a], pH 2.3): 2.36[a]; | logP [1, 4]: 3.89[c]

CC(C)Nc1nc(Nc2ccc(CC(=O)C(C)(C)C)cc2)ncc1Cl [Example 199]
pI50 growth (Fusarium proliferatum): 4.9 | logP [1, 2]: 2.3[b]

CNC(=O)Oc1cccc(Nc2ncc(Cl)c(NC(C)C)n2)c1 [Example 203]
pI50 growth (Fusarium proliferatum): 4.6 | logP [1, 2]: 1.53[b]

CC(C)Nc1nc(Nc2cccc(O)c2)ncc1Cl [Example 214]
pI50 Fum (Fusarium proliferatum): 6 | pI50 growth (Fusarium proliferatum): <4.3 | logP [1, 2]: 1.39[b]

CCCC(CC)Nc1nc(Nc2ccccc2)ncc1Br (stereo not shown) [Example 228]
pI50 growth (Fusarium proliferatum): <4.3 | logP ([1]; values marked [a], pH 2.3): 2.44[a]

CCc1cccc(Nc2ncc(Cl)c(NC(C)C)n2)c1 [Example 230]
growth inhibition of Fusarium graminearum (Fusarium graminearum): 86% | inhibitory activity of DON/AcDON (Fusarium graminearum): > 80% | logP [1, 2]: 2.33[b] | logP [1, 4]: 4.25[c];

CC(C)Nc1nc(Nc2ccc(C(=O)N(C)C)cc2)ncc1Cl [Example 234]
pI50 Fum (Fusarium proliferatum): 5.3 | pI50 growth (Fusarium proliferatum): 4.6 | logP [1, 2]: 1.44[b] | logP [1, 4]: 2.27[c];

CCC(C)N(C)c1nc(Cl)ncc1Cl (stereo not shown) [Example V-15, N-(butan-2-yl)-2,5-dichloro-N-methylpyrimidine-4-amine]
chromatographic logP [1, 5]: 3.62

CCCCNc1nc(Cl)ncc1Cl [Example V-16, N-(butan-1-yl)-2,5-dichloropyrimidine-4-amine]
chromatographic logP [1, 5]: 2.91

CC(C)(C)Nc1nc(Cl)ncc1Cl [Example V-17, N-t-butyl-2,5-dichloropyrimidine-4-amine]
chromatographic logP [1, 5]: 3.22

Clc1ncc(Cl)c(NC2CCCCC2)n1 [Example V-18, 2,5-dichloro-N-cyclohexylpyrimidine-4-amine]
chromatographic logP [1, 5]: 3.47

CCN(C)c1nc(Cl)ncc1Cl [Example V-19, 2,5-dichloro-N-ethyl-N-methylpyrimidine-4-amine]
chromatographic logP ([1]; pH 2.3, logP [a]): 2.68

CCNc1nc(Cl)ncc1Cl [Example V-20, 2,5-dichloro-N-ethylpyrimidine-4-amine]
chromatographic logP ([1]; pH 2.3, logP [a]): 1.93

CCCNc1nc(Cl)ncc1Cl [Example V-21, 2,5-dichloro-N-propylpyrimidine-4-amine]
chromatographic logP [1, 5]: 2.75

CC(C)CCNc1nc(Cl)ncc1Cl [Example V-22, 2,5-dichloro-N-(3-methylbutyl)pyrimidine-4-amine]
chromatographic logP [1, 5]: 3.45

CCC(CC)Nc1nc(Cl)ncc1Cl [Example V-23]
chromatographic logP [1, 6]: 3.39

CCC(C)CNc1nc(Cl)ncc1Cl (stereo not shown) [Example V-24, 2,5-dichloro-N-(2-methylbutyl)pyrimidine-4-amine]
chromatographic logP [1, 5]: 3.42

CCCN(C)c1nc(Cl)ncc1Cl [Example V-25, 2,5-dichloro-N-methyl-N-propylpyrimidine-4-amine]
chromatographic logP [1, 5]: 3.31

CC(C)CN(C)c1nc(Cl)ncc1Cl [Example V-26, 2,5-dichloro-N-methyl-N-(2-methylpropyl)pyrimidine-4-amine]
chromatographic logP [1, 5]: 3.78

CCCC(C)Nc1nc(Cl)ncc1Cl (stereo not shown) [Example V-27, 2,5-dichloro-N-(pent-2-yl)pyrimidine-4-amine]
chromatographic logP [1, 5]: 3.47

CCCCN(C)c1nc(Cl)ncc1Cl [Example V-28]
chromatographic logP [1, 6]: 3.89

CC(C)CNc1nc(Cl)ncc1Cl [Example V-29, 2,5-dichloro-N-(2-methylpropyl)pyrimidine-4-amine]
chromatographic logP [1, 5]: 2.93

CCN(c1nc(Cl)ncc1Cl)C(C)C [Example V-30, 2,5-dichloro-N-ethyl-N-isopropylpyrimidine-4-amine]
chromatographic logP [1, 5]: 3.8

CCCCCNc1nc(Cl)ncc1Cl [Example V-31, 2,5-dichloro-N-(pentyl)pyrimidine-4-amine]
chromatographic logP [1, 5]: 3.51

CC(C)(C)CNc1nc(Cl)ncc1Cl [Example V-32, 2,5-dichloro-N-(2,2-dimethylpropyl)pyrimidine-4-amine]
chromatographic logP [1, 5]: 3.44

C=CCN(C)c1nc(Cl)ncc1Cl [Example V-33, 2,5-dichloro-N-methyl-N-(prop-2-en-1-yl)pyrimidine-4-amine]
chromatographic logP [1, 5]: 2.98

COCC(C)Nc1nc(Nc2ccc(OC)nc2)ncc1Br (stereo not shown) [II-1]
logP [b] [1]: 1.52[b] | logP [a] [1, 7]: 1.53[a];

COCC(C)Nc1nc(Nc2ccc(OC)nc2)ncc1Cl (stereo not shown) [II-2]
logP [b] [1]: 1.39[b]

COCC(C)Nc1nc(Nc2ccc(NC3CC3)nc2)ncc1Cl (stereo not shown) [II-3]
logP [b] [1]: 1.17[b]

COCC(C)Nc1nc(Nc2ccc(O)nc2)ncc1Br (stereo not shown) [II-4]
logP [a] [1, 7]: 0.58[a]

CCN(C)S(=O)(=O)Cc1cccc([N+](=O)[O-])c1 [IV-1, N-Ethyl-N-methyl-1-(3-nitrophenyl)methanesulphonamide]
chromatographic logP [1, 5]: 2.05

CC(C)N(C)S(=O)(=O)Cc1cccc([N+](=O)[O-])c1 [IV-2, N-methyl-N-(propan-2-yl)-1-(3-nitrophenyl)methanesulphonamide]
chromatographic logP [1, 5]: 2.35

CC(NS(=O)(=O)Cc1cccc([N+](=O)[O-])c1)c1ccccc1 (stereo not shown) [IV-3, N-(1-phenylethyl)-1-(3-nitrophenyl)methanesulphonamide]
chromatographic logP [1, 5]: 2.63

O=[N+]([O-])c1cccc(CS(=O)(=O)NCc2ccccc2)c1 [IV-4, N-(benzyl)-1-(3-nitrophenyl)methanesulphonamide]
chromatographic logP [1, 5]: 2.43

CC(C)N(C)S(=O)(=O)Cc1cccc(N)c1 [IV-6, 1-(3-aminophenyl)-N-methyl-N-(propan-2-yl)methanesulphonamide]
chromatographic logP [1, 5]: 1.08

CC(NS(=O)(=O)Cc1cccc(N)c1)c1ccccc1 (stereo not shown) [IV-7, 1-(3-aminophenyl)-N-(1-phenylethyl)methanesulphonamide]
chromatographic logP [1, 5]: 1.53

Nc1cccc(CS(=O)(=O)NCc2ccccc2)c1 [IV-8, 1-(3-aminophenyl)-N-benzylmethanesulphonamide]
chromatographic logP [1, 5]: 1.32

CCC(=O)N(C)c1cccc(N)c1 [IV-9, N-(3-aminophenyl)-N-methylpropanamide]
chromatographic logP [1, 5]: 0.63

N#Cc1cnc(Nc2ccccc2)nc1Cl [VIII-3, 4-Chloro-2-(phenylamino)pyrimidine-5-carbonitrile]
chromatographic logP [1, 5]: 2.66

CC(C)c1cccc(Nc2ncc(C(F)(F)F)c(Cl)n2)c1 [VIII-4, 4-Chloro-N-[3-(propan-2-yl)phenyl]-5-(trifluoromethyl)pyrimidine-2-amine]
chromatographic logP [1, 5]: 4.87
